Source: patent publication US7183075B2, “Purified and isolated potassium-chloride cotransporter nucleic acids and polypeptides and therapeutic and screening methods using same” (Vanderbilt University, priority 2000, dated 2007)
Where two headings read alike, the source gives them in different places.

Target: T1, xKCC (Xenopus laevis, UniProt A0A1L8HZL0)
T1 sequence (A0A1L8HZL0 1-1133): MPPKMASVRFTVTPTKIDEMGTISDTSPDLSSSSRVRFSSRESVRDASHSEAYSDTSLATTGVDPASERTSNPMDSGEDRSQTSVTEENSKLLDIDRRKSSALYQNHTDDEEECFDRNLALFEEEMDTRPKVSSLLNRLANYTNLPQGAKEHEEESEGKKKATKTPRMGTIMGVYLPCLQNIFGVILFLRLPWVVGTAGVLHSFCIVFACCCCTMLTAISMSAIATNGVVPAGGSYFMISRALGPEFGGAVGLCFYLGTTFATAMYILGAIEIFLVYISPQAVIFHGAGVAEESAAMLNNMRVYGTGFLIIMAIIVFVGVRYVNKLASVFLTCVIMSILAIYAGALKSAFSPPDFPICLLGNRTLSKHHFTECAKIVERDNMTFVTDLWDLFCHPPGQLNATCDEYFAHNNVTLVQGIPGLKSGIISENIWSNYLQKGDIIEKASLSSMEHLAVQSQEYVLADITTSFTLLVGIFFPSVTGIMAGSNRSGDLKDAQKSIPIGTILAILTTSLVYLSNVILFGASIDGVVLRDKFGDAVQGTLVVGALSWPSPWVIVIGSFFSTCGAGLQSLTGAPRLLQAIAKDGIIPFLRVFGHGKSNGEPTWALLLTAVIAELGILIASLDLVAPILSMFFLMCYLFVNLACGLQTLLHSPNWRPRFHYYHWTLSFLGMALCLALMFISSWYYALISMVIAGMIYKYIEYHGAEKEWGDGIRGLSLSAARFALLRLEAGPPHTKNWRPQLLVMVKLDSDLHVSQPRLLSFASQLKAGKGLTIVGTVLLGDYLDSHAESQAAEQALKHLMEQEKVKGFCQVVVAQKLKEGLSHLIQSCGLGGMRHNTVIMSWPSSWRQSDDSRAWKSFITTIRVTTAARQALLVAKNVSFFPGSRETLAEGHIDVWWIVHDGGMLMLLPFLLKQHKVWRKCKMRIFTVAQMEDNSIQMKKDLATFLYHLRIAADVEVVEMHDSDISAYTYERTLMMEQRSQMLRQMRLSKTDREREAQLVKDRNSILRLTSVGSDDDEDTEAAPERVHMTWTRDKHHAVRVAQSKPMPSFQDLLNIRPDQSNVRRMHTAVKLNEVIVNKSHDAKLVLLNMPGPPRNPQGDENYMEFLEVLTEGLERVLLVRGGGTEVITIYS
Test: 86Rb+ uptake by the endogenous K+-Cl- cotransporter of water-injected Xenopus oocytes
Assay type: cell-based
Settings: for Km: xKCC
Experimental: Oocytes were surgically collected from anesthetized female Xenopus adults under 0.17% tricaine and incubated for 1 hour with vigorous shaking in frog Ringer ND96 (96 mM sodium chloride, 2 mM potassium chloride, 1.8 mM calcium chloride, 1.0 mM magnesium chloride, and 5 mM Hepes/Tris, pH 7.4) in the presence of 2 mg/ml collagenase B. Oocytes were then washed four times in ND96, manually defolliculated, and incubated overnight in ND96 at 18° C. On the next day, defolliculated stage V–VI oocytes were injected with 50 nl of water or a solution containing cRNA at a concentration of 0.25–0.5 μg/μl (25 ng/oocyte). Oocytes were incubated at 17–18° C. in ND96 (96 mM sodium chloride, 2 mM potassium chloride, 1.8 mM calcium chloride, 1.0 mM magnesium chloride, and 5 mM Hepes/Tris, pH 7.4), supplemented with 2.5 mM sodium pyruvate and 5 mg/100 ml gentamicin, for 3–4 days. The incubation medium was changed every 24 hours. On the day of the experiment, oocytes were switched to Cl^−-free ND96 (96 mM Na^+ Na^+ isethionate, 2 mM K^+ gluconate, 6 mM Ca^2+ gluconate, 1 mM Mg^2+ gluconate, 5 mM Hepes, 2.5 mM sodium pyruvate, 5 mg/100 ml gentamicin, pH 7.4) for 2 hours prior to the uptake assay.
K^+—Cl^− cotransport was assessed by measuring tracer ^86Rb^+ uptake (NEN® Life Science Products of Boston, Mass.) in experimental groups of at least 15 oocytes. Since both KCC4 and KCC1 display minimal activity under isotonic conditions ^86Rb^+ uptake was generally assessed in oocytes swollen by a 30-minute incubation period in a hypotonic K^+ and Cl^−-free medium (50 mM N-methyl-D-glucamine (NMDG) gluconate, 4.6 mM Ca^2+ gluconate, 1.0 mM Mg^2+ gluconate, 5 mM Hepes, pH 7.4) with 1 mM ouabain, followed by a 60-minute uptake period in a hypotonic Na^+-free medium with variable K^+—Cl^− content. […] All uptake solutions also contained 1.8 mM CaCl2, 1 mM MgCl2, 5 mM Hepes, pH 7.4, and were supplemented with 1 mM ouabain and […] ^86Rb^+. […]
All uptake assays were performed at 32° C. […] Oocytes were dissolved in 10% SDS, and tracer activity was determined for each oocyte by β-scintillation counting.

For `Cl` [Chloride], the Km (read-out: Chloride Km) was 15.4 mM.
With `CCN1C(=O)C=CC1=O` [NEM, N-ethylmaleimide] the “86Rb+ uptake due to endogenous oocyte K+-Cl- cotransporter” value (NEM, H2O-injected oocytes, both isotonic and hypotonic) was “significantly increased”.
Molecule `[K+]` [Potassium] has a Km (read-out: Potassium Km) of 27.7 mM.
